Key:
ALK = ALK (Homo sapiens, UniProt Q9UM73); assay: ALK enzyme assay (HTRF); assay type: biochemical; conditions: 0.25 nM ALK, 15.0 μM ATP, values given as pIC50 category
In short: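 Isolated ALK phosphorylates a biotinylated tyrosine peptide, 120 min at 20° C; anti-phosphotyrosine Eu-cryptate/streptavidin-XL665 HTRF read after 60 min with EDTA-containing detection mix.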

[1] = target: T1, NIH-3T3 cells overexpressing human IGF-1R (Homo sapiens, UniProt P08069); assay: IGF-1R cellular autophosphorylation (DELFIA); assay type: cell-based
T1 construct: expressed in transfected cells; host or cells: NIH-3T3 (mouse fibroblasts)
In short: (§1)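 Receptor autophosphorylation measured by DELFIA, capturing IGF-1R or IRβ and detecting with europium anti-pTyr, reported as percent of IGF-1- or insulin-stimulated signal. Compounds (30 uM to 1.5 nM) added 2 h before ligand, then 15 min stimulation (IGF-1 30 ng/ml or insulin 3 ug/ml).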

[2] = target: T2, NIH-3T3 cells overexpressing human IR (Homo sapiens, UniProt P06213); assay: IR cellular autophosphorylation (DELFIA); assay type: cell-based; conditions: 2 h compound, insulin 3 ug/ml for 15 minutes, IC50 category
T2 construct: expressed in transfected cells; host or cells: NIH-3T3 (mouse fibroblasts)
In short: as §1

T1 sequence (P08069 31-1367): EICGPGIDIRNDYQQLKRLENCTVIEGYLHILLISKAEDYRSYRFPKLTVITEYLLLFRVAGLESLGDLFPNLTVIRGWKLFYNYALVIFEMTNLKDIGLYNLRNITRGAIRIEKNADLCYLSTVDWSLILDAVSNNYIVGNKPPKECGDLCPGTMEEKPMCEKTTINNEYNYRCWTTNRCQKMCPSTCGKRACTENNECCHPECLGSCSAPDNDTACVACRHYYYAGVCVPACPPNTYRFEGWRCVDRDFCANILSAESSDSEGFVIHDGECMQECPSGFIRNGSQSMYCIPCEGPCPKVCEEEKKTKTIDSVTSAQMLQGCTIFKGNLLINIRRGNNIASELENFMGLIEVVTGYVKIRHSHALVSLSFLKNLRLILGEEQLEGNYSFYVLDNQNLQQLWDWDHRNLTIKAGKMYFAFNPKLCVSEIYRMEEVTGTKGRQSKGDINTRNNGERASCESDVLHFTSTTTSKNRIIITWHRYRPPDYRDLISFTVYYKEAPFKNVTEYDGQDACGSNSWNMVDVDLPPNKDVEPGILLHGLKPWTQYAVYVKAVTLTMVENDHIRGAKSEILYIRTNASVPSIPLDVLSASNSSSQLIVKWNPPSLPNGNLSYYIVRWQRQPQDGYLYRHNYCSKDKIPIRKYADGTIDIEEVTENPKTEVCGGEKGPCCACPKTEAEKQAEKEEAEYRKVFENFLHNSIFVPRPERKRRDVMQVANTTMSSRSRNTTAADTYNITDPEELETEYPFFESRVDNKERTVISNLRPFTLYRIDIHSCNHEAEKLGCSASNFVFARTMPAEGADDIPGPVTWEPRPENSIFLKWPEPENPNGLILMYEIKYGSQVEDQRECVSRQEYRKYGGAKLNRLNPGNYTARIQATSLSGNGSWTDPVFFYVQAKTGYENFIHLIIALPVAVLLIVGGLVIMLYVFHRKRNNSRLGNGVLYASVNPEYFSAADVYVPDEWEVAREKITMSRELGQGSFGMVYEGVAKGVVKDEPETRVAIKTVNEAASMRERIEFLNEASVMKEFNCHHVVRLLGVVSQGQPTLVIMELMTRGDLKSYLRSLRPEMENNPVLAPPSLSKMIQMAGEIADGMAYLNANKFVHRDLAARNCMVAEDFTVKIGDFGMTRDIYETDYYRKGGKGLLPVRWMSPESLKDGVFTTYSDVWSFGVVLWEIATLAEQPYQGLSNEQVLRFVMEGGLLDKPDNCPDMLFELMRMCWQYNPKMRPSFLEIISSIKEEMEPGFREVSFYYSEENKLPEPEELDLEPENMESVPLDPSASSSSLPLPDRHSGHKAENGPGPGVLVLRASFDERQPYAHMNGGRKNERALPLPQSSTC
ALK, sequence (Q9UM73 19-1620): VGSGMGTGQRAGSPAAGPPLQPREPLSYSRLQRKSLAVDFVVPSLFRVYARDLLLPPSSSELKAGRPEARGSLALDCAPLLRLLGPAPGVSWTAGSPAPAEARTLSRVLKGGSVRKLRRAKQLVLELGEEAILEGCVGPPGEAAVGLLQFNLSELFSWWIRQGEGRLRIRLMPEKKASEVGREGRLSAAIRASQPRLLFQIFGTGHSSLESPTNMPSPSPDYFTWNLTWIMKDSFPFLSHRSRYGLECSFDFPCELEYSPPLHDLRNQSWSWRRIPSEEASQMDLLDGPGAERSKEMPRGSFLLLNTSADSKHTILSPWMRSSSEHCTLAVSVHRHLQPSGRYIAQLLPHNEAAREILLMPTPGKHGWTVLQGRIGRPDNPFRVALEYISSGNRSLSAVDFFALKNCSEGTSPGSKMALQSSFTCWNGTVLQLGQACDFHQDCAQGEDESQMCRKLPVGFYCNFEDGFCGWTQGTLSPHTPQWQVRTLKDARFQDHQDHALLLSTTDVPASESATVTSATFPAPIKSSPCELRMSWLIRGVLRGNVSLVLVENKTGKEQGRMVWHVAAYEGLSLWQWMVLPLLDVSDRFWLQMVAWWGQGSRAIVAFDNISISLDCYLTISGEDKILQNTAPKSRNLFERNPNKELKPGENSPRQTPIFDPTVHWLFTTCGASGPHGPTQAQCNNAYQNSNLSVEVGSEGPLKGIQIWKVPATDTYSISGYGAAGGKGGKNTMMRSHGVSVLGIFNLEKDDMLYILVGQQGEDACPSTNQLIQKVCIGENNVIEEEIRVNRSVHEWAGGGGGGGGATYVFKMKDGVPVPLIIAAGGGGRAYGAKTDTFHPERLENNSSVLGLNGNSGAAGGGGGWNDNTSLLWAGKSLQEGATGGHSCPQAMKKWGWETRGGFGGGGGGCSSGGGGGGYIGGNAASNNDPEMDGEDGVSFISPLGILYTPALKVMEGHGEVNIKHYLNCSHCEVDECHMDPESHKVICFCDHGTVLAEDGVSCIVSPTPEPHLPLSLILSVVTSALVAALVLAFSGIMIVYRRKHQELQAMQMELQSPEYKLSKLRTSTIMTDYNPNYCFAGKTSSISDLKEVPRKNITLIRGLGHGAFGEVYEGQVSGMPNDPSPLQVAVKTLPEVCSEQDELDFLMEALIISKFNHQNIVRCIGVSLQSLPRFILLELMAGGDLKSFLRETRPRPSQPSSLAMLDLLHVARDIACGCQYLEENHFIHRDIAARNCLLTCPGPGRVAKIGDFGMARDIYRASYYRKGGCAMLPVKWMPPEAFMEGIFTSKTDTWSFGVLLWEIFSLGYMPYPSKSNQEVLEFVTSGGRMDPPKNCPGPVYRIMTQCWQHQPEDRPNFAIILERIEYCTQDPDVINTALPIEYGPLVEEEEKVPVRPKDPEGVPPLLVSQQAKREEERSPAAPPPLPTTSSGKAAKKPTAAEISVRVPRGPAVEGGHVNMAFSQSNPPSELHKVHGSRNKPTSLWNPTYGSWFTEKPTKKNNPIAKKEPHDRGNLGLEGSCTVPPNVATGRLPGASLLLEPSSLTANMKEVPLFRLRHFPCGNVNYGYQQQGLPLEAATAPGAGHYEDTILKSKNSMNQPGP
T2 sequence (P06213 28-1382): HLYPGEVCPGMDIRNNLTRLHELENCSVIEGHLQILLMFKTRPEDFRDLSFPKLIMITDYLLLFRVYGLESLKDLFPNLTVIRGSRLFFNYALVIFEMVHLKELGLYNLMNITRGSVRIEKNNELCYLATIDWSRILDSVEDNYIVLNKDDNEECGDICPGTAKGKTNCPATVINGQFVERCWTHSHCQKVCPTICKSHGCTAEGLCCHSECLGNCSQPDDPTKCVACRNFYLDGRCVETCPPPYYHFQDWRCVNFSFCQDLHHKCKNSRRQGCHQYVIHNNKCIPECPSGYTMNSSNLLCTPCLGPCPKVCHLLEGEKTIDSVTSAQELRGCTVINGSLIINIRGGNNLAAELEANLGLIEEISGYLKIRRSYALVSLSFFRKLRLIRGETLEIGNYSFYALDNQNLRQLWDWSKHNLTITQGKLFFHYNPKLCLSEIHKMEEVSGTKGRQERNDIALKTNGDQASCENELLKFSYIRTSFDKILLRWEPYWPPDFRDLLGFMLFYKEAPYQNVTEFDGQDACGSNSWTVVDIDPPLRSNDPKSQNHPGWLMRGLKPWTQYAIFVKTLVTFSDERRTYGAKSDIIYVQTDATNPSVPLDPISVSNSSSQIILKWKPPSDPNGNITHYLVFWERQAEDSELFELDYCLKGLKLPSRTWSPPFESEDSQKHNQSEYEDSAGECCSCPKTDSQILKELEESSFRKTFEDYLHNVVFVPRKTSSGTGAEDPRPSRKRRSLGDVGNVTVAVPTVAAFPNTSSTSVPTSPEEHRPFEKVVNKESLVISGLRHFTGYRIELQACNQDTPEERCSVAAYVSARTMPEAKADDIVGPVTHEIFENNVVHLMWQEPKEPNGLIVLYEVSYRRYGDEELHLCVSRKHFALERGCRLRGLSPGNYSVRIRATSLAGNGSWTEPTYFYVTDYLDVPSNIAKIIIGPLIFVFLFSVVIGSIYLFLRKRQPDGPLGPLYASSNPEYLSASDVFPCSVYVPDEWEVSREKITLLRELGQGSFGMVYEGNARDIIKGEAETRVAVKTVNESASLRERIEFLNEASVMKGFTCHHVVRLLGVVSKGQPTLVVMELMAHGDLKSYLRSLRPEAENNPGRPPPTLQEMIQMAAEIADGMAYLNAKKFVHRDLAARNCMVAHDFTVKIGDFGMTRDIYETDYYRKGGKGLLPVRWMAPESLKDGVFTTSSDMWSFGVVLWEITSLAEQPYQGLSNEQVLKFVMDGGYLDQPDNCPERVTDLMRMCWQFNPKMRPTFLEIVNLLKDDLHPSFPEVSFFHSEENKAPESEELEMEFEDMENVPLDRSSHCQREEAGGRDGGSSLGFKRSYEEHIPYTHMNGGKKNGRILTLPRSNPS

Row | SMILES | IC50 (ALK) | IC50 [1] | IC50 [2]
1 | CCCN1CCC=C(c2ccc(Nc3nc(Nc4ccccc4C(N)=O)c4cc[nH]c4n3)c(OC)c2)C1 [Example 2, 2-[(2-{[2-(methyloxy)-4-(1-propyl-1,2,5,6-tetrahydro-3-pyridinyl)phenyl]amino}-1H-pyrrolo[2,3-d]pyrimidin-4-yl)amino]benzamide] | 0.000251 to 0.001 µM | 0.1 to 0.5 µM | 0.1 to 0.5 µM
2 | CCCN1CCCC(c2ccc(Nc3nc(Nc4ccccc4C(N)=O)c4cc[nH]c4n3)c(OC)c2)C1 (stereo not drawn) [Example 3, 2-[(2-{[2-(methyloxy)-4-(1-propyl-3-piperidinyl)phenyl]amino}-1H-pyrrolo[2,3-d]pyrimidin-4-yl)amino]benzamide] | 0.000251 to 0.001 µM | < 0.1 µM | < 0.1 µM
3 | COc1ccc(NC(=O)CN(C)C)cc1Nc1nc(Nc2ccccc2C(N)=O)c2cc[nH]c2n1 [Example 15, 2-[(2-{[5-[(N,N-dimethylglycyl)amino]-2-(methyloxy)phenyl]amino}-1H-pyrrolo[2,3-d]pyrimidin-4-yl)amino]benzamide] | 0.000251 to 0.001 µM | < 0.1 µM | 
4 | CN(C)CC(=O)Nc1ccc(OC(F)(F)F)c(Nc2nc(Nc3ccccc3C(N)=O)c3cc[nH]c3n2)c1 [Example 16, 2-{[2-({5-[(N,N-dimethylglycyl)amino]-2-[(trifluoromethyl)oxy]phenyl}amino)-1H-pyrrolo[2,3-d]pyrimidin-4-yl]amino}benzamide] | 0.000251 to 0.001 µM | 0.1 to 0.5 µM | 0.1 to 0.5 µM
5 | CN(C)CC(=O)Nc1ccc(F)c(Nc2nc(Nc3ccccc3C(N)=O)c3cc[nH]c3n2)c1 [Example 17, 2-{[2-({5-[(N,N-dimethylglycyl)amino]-2-fluorophenyl}amino)-1H-pyrrolo[2,3-d]pyrimidin-4-yl]amino}benzamide] | 0.000251 to 0.001 µM | < 0.1 µM | 
6 | COc1ccc(C(N)=O)c(Nc2nc(Nc3ccc(N4CCOC[C@@H]4C)cc3OC)nc3[nH]ccc23)c1 [Example 39, 2-[(2-{[4-[(3S)-3-methyl-4-morpholinyl]-2-(methyloxy)phenyl]amino}-1H-pyrrolo[2,3-d]pyrimidin-4-yl)amino]-4-(methyloxy)benzamide] | 0.00126 to 0.00398 µM | 0.1 to 0.5 µM | 
7 | CCCN1CCC=C(c2ccc(Nc3nc(Nc4ccc(F)cc4C(N)=O)c4cc[nH]c4n3)c(OC)c2)C1 [Example 54, 5-fluoro-2-[(2-{[2-(methyloxy)-4-(1-propyl-1,2,5,6-tetrahydro-3-pyridinyl)phenyl]amino}-1H-pyrrolo[2,3-d]pyrimidin-4-yl)amino]benzamide] | 0.000251 to 0.001 µM | 0.1 to 0.5 µM | 0.1 to 0.5 µM
8 | COc1ccc(OC[C@@H](O)CN(C)C)cc1Nc1nc(Nc2cc(F)ccc2C(N)=O)c2cc[nH]c2n1 [Example 86, 2-[(2-{[5-{[(2S)-3-(dimethylamino)-2-hydroxypropyl]oxy}-2-(methyloxy)phenyl]amino}-1H-pyrrolo[2,3-d]pyrimidin-4-yl)amino]-4-fluorobenzamide] | 0.000251 to 0.001 µM | 0.1 to 0.5 µM | > 0.5 µM
9 | COc1ccc(OC[C@@H](O)CN2CCCC2)cc1Nc1nc(Nc2cc(F)c(F)cc2C(N)=O)c2cc[nH]c2n1 [Example 107, 4,5-difluoro-2-[(2-{[5-{[(2S)-2-hydroxy-3-(1-pyrrolidinyl)propyl]oxy}-2-(methyloxy)phenyl]amino}-1H-pyrrolo[2,3-d]pyrimidin-4-yl)amino]benzamide] | 0.00126 to 0.00398 µM | 0.1 to 0.5 µM | > 0.5 µM
10 | COc1cc2c(cc1Nc1nc(Nc3cc(Cl)cc(F)c3C(N)=O)c3cc[nH]c3n1)N(C(=O)CN(C)C)CC2 [Example 119, 4-chloro-2-[(2-{[1-(N,N-dimethylglycyl)-5-(methyloxy)-2,3-dihydro-1H-indol-6-yl]amino}-1H-pyrrolo[2,3-d]pyrimidin-4-yl)amino]-6-fluorobenzamide] | 0.00126 to 0.00398 µM | < 0.1 µM | < 0.1 µM
11 | COc1cc2c(cc1Nc1nc(Nc3cc4ccccc4cc3C(N)=O)c3cc[nH]c3n1)N(C(=O)CN(C)C)CC2 [Example 124, 3-[(2-{[1-(N,N-dimethylglycyl)-5-(methyloxy)-2,3-dihydro-1H-indol-6-yl]amino}-1H-pyrrolo[2,3-d]pyrimidin-4-yl)amino]-2-naphthalenecarboxamide] | 0.00126 to 0.00398 µM | < 0.1 µM | 0.1 to 0.5 µM
12 | CNC(=O)c1cc2ccccc2cc1Nc1nc(Nc2cc3c(cc2OC)CCN3C(=O)CN(C)C)nc2[nH]ccc12 [Example 125, 3-[(2-{[1-(N,N-dimethylglycyl)-5-(methyloxy)-2,3-dihydro-1H-indol-6-yl]amino}-1H-pyrrolo[2,3-d]pyrimidin-4-yl)amino]-N-methyl-2-naphthalenecarboxamide] | 0.00501 to 0.2 µM | 0.1 to 0.5 µM | 0.1 to 0.5 µM

Continued, values first:

Row | IC50 (ALK) | IC50 [1] | IC50 [2] | SMILES
13 | 0.000251 to 0.001 µM | < 0.1 µM | 0.1 to 0.5 µM | COc1cc(N2CCN(C(C)C)CC2)ccc1Nc1nc(Nc2ccccc2C(N)=O)c2cc[nH]c2n1 [Example 7, 2-[(2-{[4-[4-(1-methylethyl)-1-piperazinyl]-2-(methyloxy)phenyl]amino}-1H-pyrrolo[2,3-d]pyrimidin-4-yl)amino]benzamide]
14 | 0.000251 to 0.001 µM | < 0.1 µM | < 0.1 µM | COc1cc2c(cc1Nc1nc(Nc3cccc(F)c3C(N)=O)c3cc[nH]c3n1)N(C(=O)CN(C)C)CC2 [Example 53, 2-[(2-{[1-(N,N-dimethylglycyl)-5-(methyloxy)-2,3-dihydro-1H-indol-6-yl]amino}-1H-pyrrolo[2,3-d]pyrimidin-4-yl)amino]-6-fluorobenzamide]
15 | 0.000251 to 0.001 µM | < 0.1 µM | < 0.1 µM | COc1cc(C2CCN(C(C)C)CC2)ccc1Nc1nc(Nc2ccc(F)cc2C(N)=O)c2cc[nH]c2n1 [Example 58, 5-fluoro-2-[(2-{[4-[1-(1-methylethyl)-4-piperidinyl]-2-(methyloxy)phenyl]amino}-1H-pyrrolo[2,3-d]pyrimidin-4-yl)amino]benzamide]
16 | 0.000251 to 0.001 µM | < 0.1 µM | 0.1 to 0.5 µM | COc1cc(N2CCC(N3CCOCC3)CC2)ccc1Nc1nc(Nc2cc(F)ccc2C(N)=O)c2cc[nH]c2n1 [Example 78, 4-fluoro-2-{[2-({2-(methyloxy)-4-[4-(4-morpholinyl)-1-piperidinyl]phenyl}amino)-1H-pyrrolo[2,3-d]pyrimidin-4-yl]amino}benzamide]
17 | 0.00126 to 0.00398 µM | < 0.1 µM | < 0.1 µM | COc1cc(N2CCOC[C@@H]2C)ccc1Nc1nc(Nc2cc(F)ccc2C(N)=O)c2cc[nH]c2n1 [Example 84, 4-fluoro-2-[(2-{[4-[(3S)-3-methyl-4-morpholinyl]-2-(methyloxy)phenyl]amino}-1H-pyrrolo[2,3-d]pyrimidin-4-yl)amino]benzamide]
18 | 0.000251 to 0.001 µM | < 0.1 µM | < 0.1 µM | COc1cc(N2CCN(C(C)C)CC2)ccc1Nc1nc(Nc2cc(F)cc(F)c2C(N)=O)c2cc[nH]c2n1 [Example 89, 2,4-difluoro-6-[(2-{[4-[4-(1-methylethyl)-1-piperazinyl]-2-(methyloxy)phenyl]amino}-1H-pyrrolo[2,3-d]pyrimidin-4-yl)amino]benzamide]
19 | 0.000251 to 0.001 µM | < 0.1 µM | < 0.1 µM | COc1cc(N2CCN(C(C)C)CC2)c(C)cc1Nc1nc(Nc2cc(F)cc(F)c2C(N)=O)c2cc[nH]c2n1 [Example 91, 2,4-difluoro-6-[(2-{[5-methyl-4-[4-(1-methylethyl)-1-piperazinyl]-2-(methyloxy)phenyl]amino}-1H-pyrrolo[2,3-d]pyrimidin-4-yl)amino]benzamide]
20 | 0.000251 to 0.001 µM | < 0.1 µM | < 0.1 µM | CCCN1CCC(c2ccc(Nc3nc(Nc4cc(F)cc(F)c4C(N)=O)c4cc[nH]c4n3)c(OC)c2)CC1 [Example 92, 2,4-difluoro-6-[(2-{[2-(methyloxy)-4-(1-propyl-4-piperidinyl)phenyl]amino}-1H-pyrrolo[2,3-d]pyrimidin-4-yl)amino]benzamide]
21 | 0.00501 to 0.2 µM | > 0.5 µM | > 0.5 µM | COc1cc2c(cc1Nc1nc(Nc3cccc(F)c3C(N)=O)c3cc[nH]c3n1)N(CCN(C)C)CC2 [Example 117, 2-[(2-{[1-[2-(dimethylamino)ethyl]-5-(methyloxy)-2,3-dihydro-1H-indol-6-yl]amino}-1H-pyrrolo[2,3-d]pyrimidin-4-yl)amino]-6-fluorobenzamide]
22 | 0.00501 to 0.2 µM | 0.1 to 0.5 µM | > 0.5 µM | COc1cc2c(cc1Nc1nc(Nc3cccc(F)c3C(N)=O)c3cc[nH]c3n1)N(C(=O)CCN(C)C)CC2 [Example 118, 2-[(2-{[1-(N,N-dimethyl-b-alanyl)-5-(methyloxy)-2,3-dihydro-1H-indol-6-yl]amino}-1H-pyrrolo[2,3-d]pyrimidin-4-yl)amino]-6-fluorobenzamide]
23 | 0.00126 to 0.00398 µM | 0.1 to 0.5 µM | 0.1 to 0.5 µM | COc1cc2c(cc1Nc1nc(Nc3cccc(F)c3C(N)=O)c3cc[nH]c3n1)CN(C)CC2 [Example 121, 2-fluoro-6-[(2-{[2-methyl-6-(methyloxy)-1,2,3,4-tetrahydro-7-isoquinolinyl]amino}-1H-pyrrolo[2,3-d]pyrimidin-4-yl)amino]benzamide]
24 | 0.00501 to 0.2 µM | 0.1 to 0.5 µM | < 0.1 µM | CCCN1CCC(N2CCc3cc(OC)c(Nc4nc(Nc5cccc(F)c5C(N)=O)c5cc[nH]c5n4)cc3C2)CC1 [Example 122, 2-fluoro-6-[(2-{[6-(methyloxy)-2-(1-propyl-4-piperidinyl)-1,2,3,4-tetrahydro-7-isoquinolinyl]amino}-1H-pyrrolo[2,3-d]pyrimidin-4-yl)amino]benzamide]

Source: patent publication US7981903B2, “2-[2-{phenylamino}-1H-pyrrolo[2,3-D]pyrimidin-4-yl)amino] benzamide derivatives as IGF-1R inhibitors for the treatment of cancer” (GlaxoSmithKline LLC, priority 2007, dated 2011)
